From patent publication US10000474B2, “Histone deacetylase inhibitors and uses thereof” (MUSC FOUNDATION FOR RESEARCH DEVELOPMENT, priority 2014, dated 2018)

Columns and labels:
Format in all cases: biochemical
Details in all cases: test concentration not given; average of triplicate
Recombinant human HDAC2 = molecular target: T1, Recombinant human HDAC2 (Homo sapiens, UniProt Q92769); test: HDAC inhibitory assay, HDAC2 (Boc-Lys(Ac)-AMC substrate)
T1 construct: purchased BPS Biosciences
Procedure: (§1) The compounds of Examples 1-12 and 14-16 were evaluated for their ability to act as inhibitors of human HDAC. The compound of Example 13 was not tested. Recombinant human HDAC1, HDAC2, HDAC3/NcoR2, HDAC5, HDAC6, HDAC8, HDAC9, HDAC10 and HDAC11 were purchased from BPS Biosciences. Recombinant human HDAC4 and HDAC7 were purchased from Millipore. The substrate Boc-Lys(Ac)-AMC and Boc-Lys(Tfa)-AMC were purchased from Bachem. The substrate Ac-RHK(Ac)K(Ac)-AMC was purchased from Enzo Life Sciences. Due to the different specific activities of each isoform, different amount of enzyme was used in each isoform screening assay. In these assays, trichostatin A (TSA), suberanilohydroxamic acid and diphenylacetohydroxamic acid (DPAHA) were employed as positive controls. All determinations were carried out in triplicate, and reported values were the average of these determinations, which in no case varied by more than 5%.
(§2) Then 25 μl of the Boc-Lys(Ac)-AMC substrate (50 μM final concentration) was added and incubated at 37° C. for 30-60 min, and followed by adding 50 μl of developer (1 mg/ml trypsin and 1 μM TSA). The last step was reading the samples in a SpectraMax M5 plate reader (Molecular Devices) at an excitation wavelength of 360 nm and an emission wavelength of 460 nm.

Recombinant human HDAC8 = molecular target: T2, Recombinant human HDAC8 (Homo sapiens, UniProt Q9BY41); test: HDAC inhibitory assay, HDAC8 (Ac-RHK(Ac)K(Ac)-AMC substrate)
T2 construct: purchased BPS Biosciences
T2 sequence (Q9BY41 1-377): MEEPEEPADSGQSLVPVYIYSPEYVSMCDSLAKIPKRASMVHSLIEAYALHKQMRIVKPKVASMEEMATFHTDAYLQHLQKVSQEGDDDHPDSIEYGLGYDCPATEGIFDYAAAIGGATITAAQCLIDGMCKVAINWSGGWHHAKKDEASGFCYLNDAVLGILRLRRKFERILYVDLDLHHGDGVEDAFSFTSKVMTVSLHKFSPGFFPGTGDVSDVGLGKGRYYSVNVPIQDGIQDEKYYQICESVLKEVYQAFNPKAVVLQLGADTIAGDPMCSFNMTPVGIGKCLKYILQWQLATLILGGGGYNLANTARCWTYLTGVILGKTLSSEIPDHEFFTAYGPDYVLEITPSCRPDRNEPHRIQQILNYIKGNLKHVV
Procedure: as §1
For evaluating the inhibition of HDAC8, 10 μl of test samples were first incubated with 25 ng HDAC8 (specific activity 298 pmol/min/μg). Then 25 μl of the fluorogenic peptide from p53 residues 379-382 (Ac-RHK(Ac)K(Ac)-AMC, 50 μM final concentration) was added and incubated at 37° C. for 30-60 min, and followed by adding 50 μl of developer (1 mg/ml trypsin and 1 uM TSA). The last step was to read the samples in a SpectraMax M5 plate reader (Molecular Devices) at an excitation wavelength of 360 nm and an emission wavelength of 460 nm.

Recombinant human HDAC1 = molecular target: T3, Recombinant human HDAC1 (Homo sapiens, UniProt Q13547); test: HDAC inhibitory assay, HDAC1 (Boc-Lys(Ac)-AMC substrate)
T3 construct: purchased BPS Biosciences
Procedure: as §1, §2

Recombinant human HDAC5 = molecular target: T4, Recombinant human HDAC5 (Homo sapiens, UniProt Q9UQL6); test: HDAC inhibitory assay, HDAC5 (Boc-Lys(Tfa)-AMC substrate)
T4 construct: purchased BPS Biosciences
Procedure: as §1
(§3) For evaluating the inhibition of class IIa HDACs (HDAC4, HDAC5, HDAC7 and HDAC9) and class IV HDAC (HDAC11), 10 μl of test samples were first incubated with 1 ng HDAC4 (specific activity=15400 pmol/min/μg), 5 ng HDAC5 (specific activity=2521 pmol/min/μg), 1 ng HDAC7 (specific activity=26340 pmol/min/μg), 5 ng HDAC9 (specific activity=3000 pmol/min/μg), and 500 ng HDAC11 (specific activity=1.8 pmol/min/μg) respectively. Then 25 μl of the Boc-Lys(Tfa)-AMC substrate (50 μM final concentration) was added and incubated at 37° C. for 30-60 min, and followed by adding 50 μl of developer. The last step was to read the samples in a SpectraMax M5 plate reader (Molecular Devices) at an excitation wavelength of 360 nm and an emission wavelength of 460 nm.

[1] = molecular target: T5, Recombinant human HDAC3/NcoR2 (Homo sapiens, UniProt O15379); test: HDAC inhibitory assay, HDAC3 (Boc-Lys(Ac)-AMC substrate)
T5 construct: purchased BPS Biosciences
Procedure: as §1, §2

Recombinant human HDAC9 = molecular target: T6, Recombinant human HDAC9 (Homo sapiens, UniProt Q9UKV0); test: HDAC inhibitory assay, HDAC9 (Boc-Lys(Tfa)-AMC substrate)
T6 construct: purchased BPS Biosciences
Procedure: as §1, §3

Recombinant human HDAC7 = molecular target: T7, Recombinant human HDAC7 (Homo sapiens, UniProt Q8WUI4); test: HDAC inhibitory assay, HDAC7 (Boc-Lys(Tfa)-AMC substrate)
T7 construct: purchased Millipore
T7 sequence (Q8WUI4 1-952): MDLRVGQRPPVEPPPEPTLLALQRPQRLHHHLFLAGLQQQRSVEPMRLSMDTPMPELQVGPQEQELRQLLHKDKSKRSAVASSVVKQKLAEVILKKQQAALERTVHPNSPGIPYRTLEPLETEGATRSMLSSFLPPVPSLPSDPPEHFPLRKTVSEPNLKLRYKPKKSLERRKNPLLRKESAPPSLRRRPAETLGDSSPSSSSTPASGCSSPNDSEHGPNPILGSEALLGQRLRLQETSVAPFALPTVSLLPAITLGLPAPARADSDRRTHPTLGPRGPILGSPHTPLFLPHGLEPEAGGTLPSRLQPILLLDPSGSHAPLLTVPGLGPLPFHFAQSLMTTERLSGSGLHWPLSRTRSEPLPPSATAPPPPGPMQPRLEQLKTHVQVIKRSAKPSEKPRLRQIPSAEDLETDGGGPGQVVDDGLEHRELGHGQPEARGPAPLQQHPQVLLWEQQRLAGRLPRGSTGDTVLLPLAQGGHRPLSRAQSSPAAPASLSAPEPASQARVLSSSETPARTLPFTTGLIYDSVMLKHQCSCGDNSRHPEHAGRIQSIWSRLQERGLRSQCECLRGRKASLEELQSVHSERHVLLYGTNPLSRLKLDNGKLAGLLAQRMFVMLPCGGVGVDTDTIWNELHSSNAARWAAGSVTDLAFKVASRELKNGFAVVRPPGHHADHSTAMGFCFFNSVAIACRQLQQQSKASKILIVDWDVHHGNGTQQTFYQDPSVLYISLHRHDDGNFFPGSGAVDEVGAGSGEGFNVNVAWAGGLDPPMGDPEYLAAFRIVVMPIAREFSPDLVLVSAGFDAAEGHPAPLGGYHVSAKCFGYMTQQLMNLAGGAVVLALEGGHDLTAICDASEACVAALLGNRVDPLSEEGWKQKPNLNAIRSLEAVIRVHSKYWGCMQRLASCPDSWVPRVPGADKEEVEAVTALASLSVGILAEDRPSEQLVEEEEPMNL
Procedure: as §1, §3

Recombinant human HDAC4 = molecular target: T8, Recombinant human HDAC4 (Homo sapiens, UniProt P56524); test: HDAC inhibitory assay, HDAC4 (Boc-Lys(Tfa)-AMC substrate)
T8 construct: purchased Millipore
Procedure: as §1, §3

T5 sequence (O15379 whole entry): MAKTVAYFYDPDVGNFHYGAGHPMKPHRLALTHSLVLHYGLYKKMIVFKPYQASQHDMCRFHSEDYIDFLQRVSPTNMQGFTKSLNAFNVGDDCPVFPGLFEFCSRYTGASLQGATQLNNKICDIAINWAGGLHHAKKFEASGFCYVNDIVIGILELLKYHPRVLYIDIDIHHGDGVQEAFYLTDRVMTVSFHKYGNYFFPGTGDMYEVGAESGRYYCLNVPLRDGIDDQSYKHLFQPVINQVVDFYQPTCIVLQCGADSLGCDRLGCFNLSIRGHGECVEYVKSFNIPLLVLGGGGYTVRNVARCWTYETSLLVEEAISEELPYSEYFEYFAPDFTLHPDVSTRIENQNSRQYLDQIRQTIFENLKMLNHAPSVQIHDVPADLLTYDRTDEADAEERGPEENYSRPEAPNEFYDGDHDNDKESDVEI
T5 sequence (Q9Y618 395-489 partner limits assumed): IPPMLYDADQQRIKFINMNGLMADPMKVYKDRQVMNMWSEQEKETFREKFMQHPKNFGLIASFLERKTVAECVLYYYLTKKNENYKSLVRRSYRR
T1 sequence (Q92769 whole entry): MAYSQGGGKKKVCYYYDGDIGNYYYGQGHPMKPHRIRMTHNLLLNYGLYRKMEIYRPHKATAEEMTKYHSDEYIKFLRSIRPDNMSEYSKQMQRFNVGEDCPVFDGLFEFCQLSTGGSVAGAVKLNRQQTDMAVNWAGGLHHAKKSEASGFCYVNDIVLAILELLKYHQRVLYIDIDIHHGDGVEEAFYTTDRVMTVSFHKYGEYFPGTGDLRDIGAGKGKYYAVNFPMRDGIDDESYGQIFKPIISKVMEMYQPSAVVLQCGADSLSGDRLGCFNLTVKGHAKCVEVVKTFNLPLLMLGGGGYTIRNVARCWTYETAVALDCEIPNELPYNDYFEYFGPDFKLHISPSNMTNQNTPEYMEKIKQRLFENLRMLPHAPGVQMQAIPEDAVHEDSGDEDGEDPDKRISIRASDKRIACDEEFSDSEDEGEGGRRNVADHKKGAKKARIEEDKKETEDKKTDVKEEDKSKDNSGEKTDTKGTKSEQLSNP
T3 sequence (Q13547 whole entry): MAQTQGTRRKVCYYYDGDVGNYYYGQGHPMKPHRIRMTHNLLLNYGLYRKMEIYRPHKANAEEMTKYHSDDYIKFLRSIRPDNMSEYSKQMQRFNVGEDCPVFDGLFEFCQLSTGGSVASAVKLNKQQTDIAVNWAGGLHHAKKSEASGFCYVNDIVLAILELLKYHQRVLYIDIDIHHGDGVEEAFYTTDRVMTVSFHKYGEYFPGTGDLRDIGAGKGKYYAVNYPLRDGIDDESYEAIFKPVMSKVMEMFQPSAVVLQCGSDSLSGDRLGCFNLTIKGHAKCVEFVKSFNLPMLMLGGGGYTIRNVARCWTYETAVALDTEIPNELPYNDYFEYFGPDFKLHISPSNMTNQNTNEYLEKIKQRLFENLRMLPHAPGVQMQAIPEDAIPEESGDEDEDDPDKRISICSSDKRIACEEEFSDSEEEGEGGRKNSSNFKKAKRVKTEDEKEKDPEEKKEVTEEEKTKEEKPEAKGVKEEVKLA
T6 sequence (Q9UKV0 whole entry): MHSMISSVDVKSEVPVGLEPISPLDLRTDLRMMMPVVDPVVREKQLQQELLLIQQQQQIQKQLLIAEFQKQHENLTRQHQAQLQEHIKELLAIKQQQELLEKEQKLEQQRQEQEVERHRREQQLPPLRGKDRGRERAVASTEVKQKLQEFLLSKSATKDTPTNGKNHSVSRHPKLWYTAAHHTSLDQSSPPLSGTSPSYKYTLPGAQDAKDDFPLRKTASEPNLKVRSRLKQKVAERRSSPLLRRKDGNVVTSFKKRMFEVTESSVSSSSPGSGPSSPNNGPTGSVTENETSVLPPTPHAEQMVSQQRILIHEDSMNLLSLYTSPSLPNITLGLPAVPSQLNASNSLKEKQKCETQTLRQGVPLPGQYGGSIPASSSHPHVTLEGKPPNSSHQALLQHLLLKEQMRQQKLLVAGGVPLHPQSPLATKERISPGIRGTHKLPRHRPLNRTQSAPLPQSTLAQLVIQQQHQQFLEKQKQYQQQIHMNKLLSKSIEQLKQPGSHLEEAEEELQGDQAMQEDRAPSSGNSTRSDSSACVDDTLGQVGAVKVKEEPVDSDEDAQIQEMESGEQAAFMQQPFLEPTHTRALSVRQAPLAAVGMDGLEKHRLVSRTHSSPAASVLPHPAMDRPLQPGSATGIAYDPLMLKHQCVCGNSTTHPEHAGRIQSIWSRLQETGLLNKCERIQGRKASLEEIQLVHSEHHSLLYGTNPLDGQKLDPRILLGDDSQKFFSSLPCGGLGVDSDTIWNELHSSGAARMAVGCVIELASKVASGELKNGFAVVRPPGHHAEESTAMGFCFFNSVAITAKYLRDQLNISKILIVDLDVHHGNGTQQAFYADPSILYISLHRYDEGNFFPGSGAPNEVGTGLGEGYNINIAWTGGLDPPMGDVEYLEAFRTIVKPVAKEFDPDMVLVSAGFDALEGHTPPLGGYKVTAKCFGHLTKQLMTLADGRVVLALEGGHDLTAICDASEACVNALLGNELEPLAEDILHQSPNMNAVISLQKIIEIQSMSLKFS
T4 sequence (Q9UQL6 whole entry): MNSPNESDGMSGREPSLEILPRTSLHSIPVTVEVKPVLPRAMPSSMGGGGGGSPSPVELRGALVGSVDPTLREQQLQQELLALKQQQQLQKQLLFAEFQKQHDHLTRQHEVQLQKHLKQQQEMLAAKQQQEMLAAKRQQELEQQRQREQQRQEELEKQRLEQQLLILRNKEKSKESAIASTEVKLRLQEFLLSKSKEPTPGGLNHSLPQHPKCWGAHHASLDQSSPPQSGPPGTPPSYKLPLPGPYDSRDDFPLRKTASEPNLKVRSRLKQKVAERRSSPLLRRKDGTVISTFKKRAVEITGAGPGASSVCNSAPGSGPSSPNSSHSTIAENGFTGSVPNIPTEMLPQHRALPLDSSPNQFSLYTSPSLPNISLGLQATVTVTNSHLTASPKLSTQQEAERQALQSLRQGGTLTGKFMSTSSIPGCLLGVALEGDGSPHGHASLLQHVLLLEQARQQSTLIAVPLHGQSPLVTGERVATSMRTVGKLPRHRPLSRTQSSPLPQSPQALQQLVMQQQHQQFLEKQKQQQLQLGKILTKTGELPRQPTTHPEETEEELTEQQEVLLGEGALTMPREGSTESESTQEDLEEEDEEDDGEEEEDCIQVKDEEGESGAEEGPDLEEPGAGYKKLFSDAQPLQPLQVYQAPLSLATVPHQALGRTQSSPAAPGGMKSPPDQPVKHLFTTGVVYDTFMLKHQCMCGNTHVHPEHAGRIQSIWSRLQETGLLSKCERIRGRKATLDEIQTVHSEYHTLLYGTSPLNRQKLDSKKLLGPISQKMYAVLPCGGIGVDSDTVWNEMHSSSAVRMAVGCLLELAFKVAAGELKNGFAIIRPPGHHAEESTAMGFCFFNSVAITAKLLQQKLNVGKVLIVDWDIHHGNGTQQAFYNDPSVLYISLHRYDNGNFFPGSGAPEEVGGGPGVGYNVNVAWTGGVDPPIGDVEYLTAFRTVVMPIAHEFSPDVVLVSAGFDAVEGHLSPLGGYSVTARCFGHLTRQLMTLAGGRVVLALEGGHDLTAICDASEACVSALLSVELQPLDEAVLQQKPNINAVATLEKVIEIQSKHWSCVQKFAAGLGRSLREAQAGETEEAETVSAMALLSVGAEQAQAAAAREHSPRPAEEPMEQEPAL
T8 sequence (P56524 whole entry): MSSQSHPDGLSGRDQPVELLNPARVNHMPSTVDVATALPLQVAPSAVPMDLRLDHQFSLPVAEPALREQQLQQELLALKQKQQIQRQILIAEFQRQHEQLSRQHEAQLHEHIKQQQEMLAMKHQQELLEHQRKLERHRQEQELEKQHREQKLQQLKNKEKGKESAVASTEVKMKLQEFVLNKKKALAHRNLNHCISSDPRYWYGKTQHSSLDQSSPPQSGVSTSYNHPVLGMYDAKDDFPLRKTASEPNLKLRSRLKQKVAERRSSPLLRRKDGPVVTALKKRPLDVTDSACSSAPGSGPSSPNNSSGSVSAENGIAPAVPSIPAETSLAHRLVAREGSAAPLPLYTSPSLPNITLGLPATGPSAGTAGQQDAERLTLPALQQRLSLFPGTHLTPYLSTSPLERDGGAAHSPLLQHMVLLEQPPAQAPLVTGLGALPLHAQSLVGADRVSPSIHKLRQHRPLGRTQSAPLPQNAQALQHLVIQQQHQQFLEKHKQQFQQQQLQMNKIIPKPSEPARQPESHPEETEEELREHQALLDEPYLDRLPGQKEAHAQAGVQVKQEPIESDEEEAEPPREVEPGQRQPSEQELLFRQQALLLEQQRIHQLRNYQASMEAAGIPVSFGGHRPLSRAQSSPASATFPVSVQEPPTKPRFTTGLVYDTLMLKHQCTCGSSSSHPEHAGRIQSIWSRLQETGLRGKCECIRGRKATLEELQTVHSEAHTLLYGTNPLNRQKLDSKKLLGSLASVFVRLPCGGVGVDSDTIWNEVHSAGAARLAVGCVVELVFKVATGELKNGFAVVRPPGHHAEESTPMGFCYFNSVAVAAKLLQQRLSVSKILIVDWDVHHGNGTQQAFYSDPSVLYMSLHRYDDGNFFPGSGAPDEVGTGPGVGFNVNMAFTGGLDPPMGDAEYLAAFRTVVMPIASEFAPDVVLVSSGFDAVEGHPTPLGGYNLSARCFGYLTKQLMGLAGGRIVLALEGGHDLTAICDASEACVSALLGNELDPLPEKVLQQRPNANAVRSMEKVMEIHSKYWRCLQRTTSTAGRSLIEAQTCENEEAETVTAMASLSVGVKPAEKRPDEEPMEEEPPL

| HDAC 2 inhibitory activity (Recombinant human HDAC2) [%] | HDAC 8 inhibitory activity (Recombinant human HDAC8) [%] | HDAC 1 inhibitory activity (Recombinant human HDAC1) [%] | HDAC 5 inhibitory activity (Recombinant human HDAC5) [%] | HDAC 3 inhibitory activity [1] [%] | HDAC 9 inhibitory activity (Recombinant human HDAC9) [%] | HDAC 7 inhibitory activity (Recombinant human HDAC7) [%] | HDAC 4 inhibitory activity (Recombinant human HDAC4) [%] | SMILES |
| --- | --- | --- | --- | --- | --- | --- | --- | --- |
| 54.1 | 23.3 | 68.0 | 14.9 | 37.8 | 33.3 | 9.2 | 20.7 | O=C(NC(c1ccccc1)c1ccccc1)c1coc(-c2ccccc2O)n1 [Example 2, N-Benzhydryl-2-(2-hydroxyphenyl)oxazole-4-carboxamide] |
| 34.8 | 16.7 | 43.9 | 0 | 23.7 | 21.6 | 4.1 | 8.5 | O=C(NCC(c1ccccc1)c1ccccc1)c1coc(-c2ccccc2O)n1 [Example 3, N-(2,2-Diphenylethyl)-2-(2-hydroxyphenyl)oxazole-4-carboxamide] |
| 28.7 | 7.2 | 35.9 | 11.3 | 37.5 | 28.2 | 0.7 | 25.8 | O=C(NCCC(c1ccccc1)c1ccccc1)c1coc(-c2ccccc2O)n1 [Example 4, N-(3,3-Diphenylpropyl)-2-(2-hydroxyphenyl)oxazole-4-carboxamide] |
| 45.2 | 10.6 | 47.8 | 3.2 | 32.3 | 15.5 | 3.8 | 21.3 | O=C(NCc1cccc2ccccc12)c1coc(-c2ccccc2O)n1 [Example 7, 2-(2-Hydroxyphenyl)-N-(naphthalen-1-ylmethyl)oxazole-4-carboxamide] |

More lines, now with the values behind:

| SMILES | HDAC 2 inhibitory activity (Recombinant human HDAC2) [%] | HDAC 8 inhibitory activity (Recombinant human HDAC8) [%] | HDAC 1 inhibitory activity (Recombinant human HDAC1) [%] | HDAC 5 inhibitory activity (Recombinant human HDAC5) [%] | HDAC 3 inhibitory activity [1] [%] | HDAC 9 inhibitory activity (Recombinant human HDAC9) [%] | HDAC 7 inhibitory activity (Recombinant human HDAC7) [%] | HDAC 4 inhibitory activity (Recombinant human HDAC4) [%] |
| --- | --- | --- | --- | --- | --- | --- | --- | --- |
| O=C(Nc1ccccc1)c1coc(-c2ccccc2O)n1 [Example 1, 2-(2-Hydroxyphenyl)-N-phenyloxazole-4-carboxamide] | 29.5 | 0 | 62.5 | 9.3 | 22.5 | 20.5 | 1.3 | 17.1 |
| O=C(Nc1ccc(-c2ccccc2)cc1)c1coc(-c2ccccc2O)n1 [Example 5, N-([1,1′-Biphenyl]-4-yl)-2-(2-hydroxyphenyl)oxazole-4-carboxamide] | 31.9 | 7.2 | 62.2 | 0 | 30.2 | 32.4 | 19.4 | 25.5 |
| O=C(NCc1ccc(-c2ccccc2)cc1)c1coc(-c2ccccc2O)n1 [Example 6, N-([1,1′-Biphenyl]-4-ylmethyl)-2-(2-hydroxyphenyl)oxazole-4-carboxamide] | 52.2 | 17.9 | 61.4 | 9.2 | 40.1 | 20.8 | 1.4 | 24.4 |
| O=C(NCCc1c[nH]c2ccccc12)c1coc(-c2ccccc2O)n1 [Example 8, N-(2-(1H-Indol-3-yl)ethyl)-2-(2-hydroxyphenyl)oxazole-4-carboxamide] | 36.0 | 7.7 | 41.7 | 0 | 18.9 | 18.4 | 3.8 | 7.5 |
| O=C(NCCCCN1C(=O)c2ccccc2C1=O)c1coc(-c2ccccc2O)n1 [Example 9, N-(4-(1,3-Dioxoisoindolin-2-yl)butyl)-2-(2-hydroxyphenyl)oxazole-4-carboxamide] | 25.4 | 9.6 | 35.2 | 10.3 | 11.0 | 16.4 | 1.1 | 17.5 |
